The values that follow are results of earlier work, collected in patent US9763892B2, “Immediate release phospholipid-coated therapeutic agent nanoparticles and related methods” (Autotelic LLC, priority 2015, dated 2017).

The conditions of the data set: phospholipid used for PTX-NPs.
As for `CCCCCCCC/C=C\CCCCCCCC(=O)OC[C@H](COP(=O)([O-])OCC[N+](C)(C)C)OC(=O)CCCCCCC/C=C\CCCCCCCC` [PC-18 (unsaturated), 1,2-dioleoyl-sn-glycero-3-phosphocholine], the “Transition Temp.” value is −17 °C.

Consider `CCCCCCCCCCCCCCCCCCCC(=O)OC[C@H](COP(=O)([O-])OCC[N+](C)(C)C)OC(=O)CCCCCCCCCCCCCCCCCCC` [PC-20, 1,2-diarachidoyl-sn-glycero-3-phosphocholine], for which the “Transition Temp.” value was 66 °C.

In the case of `CCCCCCCCCCCC(=O)OC[C@H](COP(=O)([O-])OCC[N+](C)(C)C)OC(=O)CCCCCCCCCCC` [PC-12, 1,2-dilauroyl-sn-glycero-3-phosphocholine], the “Transition Temp.” value is −2 °C.

`CCCCCCCCCCCCCC(=O)OC[C@H](COP(=O)([O-])OCC[N+](C)(C)C)OC(=O)CCCCCCCCCCCCC` [PC-14, 1,2-dimyristoyl-sn-glycero-3-phosphocholine]: the “Transition Temp.” value was 24 °C.

As for `CCCCCCCCCCCCCCCC(=O)OC[C@H](COP(=O)([O-])OCC[N+](C)(C)C)OC(=O)CCCCCCCCCCCCCCC` [PC 16, 1,2-dipalmitoyl-sn-glycero-3-phosphocholine], the “Transition Temp.” value is 41 °C.
